Results: ChEMBL document CHEMBL1121780, “Synthesis and antiarrhythmic activity of new benzofuran derivatives” (J Med Chem, 1981)
Several values for one entry are separate records, joined by “and”; a condition that tells them apart may be missing. Equal values may be shown once. Activity calls are given as the source filed them. The rule behind the calls is not given here.

Key:
[1] = Toxicity estimated in mouse as LD50 by intravenous administration; format: organism-based; settings: in vivo
[2] = test system: Canis familiaris; experiment: Activity against ouabain-induced ventricular arrhythmia was measured as percent of sinus rhythm recovery at the dose of 2 mg/kg iv; format: functional, Canis lupus familiaris, Cardiac ventricle
[3] = test system: Canis familiaris; experiment: Activity against ouabain-induced ventricular arrhythmia was measured as percent of sinus rhythm recovery at dose of 6 mg/kg iv; format: functional, Canis lupus familiaris, Cardiac ventricle
[4] = species: Canis familiaris; experiment: Duration for the sinus rhythm recovery was measured; format: functional, Canis lupus familiaris
[5] = test system: Canis familiaris; experiment: Activity against harris coronary ligation induced ventricular arrhythmia was measured as percent of initial sinus complexes after dose 5 mg/kg, iv; format: functional, Canis lupus familiaris, Cardiac ventricle
[6] = test system: Canis familiaris; experiment: Activity against harris coronary ligation induced ventricular arrhythmia was measured as percent of final sinus complexes after dose 10 mg/kg, iv; format: functional, Canis lupus familiaris, Cardiac ventricle
[7] = test system: Canis familiaris; experiment: Activity against ouabain-induced ventricular arrhythmia was measured as percent of sinus rhythm recovery at dose of 5 mg/kg iv; format: functional, Canis lupus familiaris, Cardiac ventricle
[8] = test system: Canis familiaris; experiment: Activity against harris coronary ligation induced ventricular arrhythmia was measured as percent of final sinus complexes after dose 5 mg/kg, iv; format: functional, Canis lupus familiaris, Cardiac ventricle
[9] = test system: Canis familiaris; experiment: Activity against harris coronary ligation induced ventricular arrhythmia was measured as percent of initial sinus complexes after dose 10 mg/kg, iv; format: functional, Canis lupus familiaris, Cardiac ventricle
[10] = species: Canis familiaris; experiment: Duration for the antiarrhythmic activity was measured; format: functional, Canis lupus familiaris, Heart
[11] = Toxicity was estimated in mouse as LD50 by intravenous administration; LD50 = 200(30%); format: organism-based; settings: in vivo
[12] = test system: Canis familiaris; experiment: Activity against ouabain-induced ventricular arrhythmia was measured as percent of sinus rhythm recovery at dose of 10 mg/kg iv; format: functional, Canis lupus familiaris, Cardiac ventricle
[13] = test system: Canis familiaris; experiment: Activity against harris coronary ligation induced ventricular arrhythmia was measured as percent of final sinus complexes after dose 5 mg/kg iv; format: functional, Canis lupus familiaris, Cardiac ventricle
[14] = test system: Canis familiaris; experiment: Activity against harris coronary ligation induced ventricular arrhythmia was measured as percent of final sinus complexes after dose 25 mg/kg po; format: functional, Canis lupus familiaris, Cardiac ventricle
[15] = test system: Canis familiaris; experiment: Activity against harris coronary ligation induced ventricular arrhythmia was measured as percent of initial sinus complexes after dose 5 mg/kg iv; format: functional, Canis lupus familiaris, Cardiac ventricle
[16] = test system: Canis familiaris; experiment: Activity against harris coronary ligation induced ventricular arrhythmia was measured as percent of initial sinus complexes after dose 25 mg/kg po; format: functional, Canis lupus familiaris, Cardiac ventricle
[17] = species: Canis familiaris; experiment: Duration for the antiarrhythmic activity was measured; 10-60; format: functional, Canis lupus familiaris, Heart
[18] = test system: Canis familiaris; experiment: Activity against ouabain-induced ventricular arrhythmia was measured as percent of sinus rhythm recovery at dose of 1 mg/kg iv; format: functional, Canis lupus familiaris, Cardiac ventricle
[19] = test system: Canis familiaris; experiment: Activity against harris coronary ligation induced ventricular arrhythmia was measured as percent of final sinus complexes after dose 2 mg/kg, iv; format: functional, Canis lupus familiaris, Cardiac ventricle
[20] = test system: Canis familiaris; experiment: Activity against harris coronary ligation induced ventricular arrhythmia was measured as percent of initial sinus complexes after dose 2 mg/kg iv; format: organism-based, Canis lupus familiaris, Cardiac ventricle; set-up: dose 2 mg/kg, route intravenous; settings: dog, in vivo
[21] = test system: Canis familiaris; experiment: Activity against harris coronary ligation induced ventricular arrhythmia was measured as percent of initial sinus complexes after dose 10 mg/kg iv; format: functional, Canis lupus familiaris, Cardiac ventricle
[22] = test system: Canis familiaris; experiment: Activity against harris coronary ligation induced ventricular arrhythmia was measured as percent of final sinus complexes after dose mg/kg, iv; format: functional, Canis lupus familiaris, Cardiac ventricle
[23] = test system: Canis familiaris; experiment: Activity against harris coronary ligation induced ventricular arrhythmia was measured as percent of initial sinus complexes after dose mg/kg, iv=25; format: functional, Canis lupus familiaris, Cardiac ventricle
[24] = test system: Canis familiaris; experiment: Activity against harris coronary ligation induced ventricular arrhythmia was measured as percent of initial sinus complexes after dose mg/kg, iv=12.5; format: functional, Canis lupus familiaris, Cardiac ventricle
[25] = test system: Canis familiaris; experiment: Activity against harris coronary ligation induced ventricular arrhythmia was measured as percent of final sinus complexes after dose 10 mg/kg iv; format: functional, Canis lupus familiaris, Cardiac ventricle
[26] = test system: Canis familiaris; experiment: Activity against harris coronary ligation induced ventricular arrhythmia was measured as percent of initial sinus complexes after dose 25 mg/kg, po; format: functional, Canis lupus familiaris, Cardiac ventricle
[27] = test system: Canis familiaris; experiment: Activity against ouabain-induced ventricular arrhythmia was measured as percent of sinus rhythm recovery at dose of 2 mg/kg iv; format: functional, Canis lupus familiaris, Cardiac ventricle
[28] = test system: Canis familiaris; experiment: Activity against harris coronary ligation induced ventricular arrhythmia was measured as percent of initial sinus complexes after dose 12.5 mg/kg, po; format: functional, Canis lupus familiaris, Cardiac ventricle
[29] = test system: Canis familiaris; experiment: Activity against harris coronary ligation induced ventricular arrhythmia was measured as percent of final sinus complexes after dose 2.5 mg/kg, iv; format: functional, Canis lupus familiaris, Cardiac ventricle
[30] = test system: Canis familiaris; experiment: Activity against harris coronary ligation induced ventricular arrhythmia was measured as percent of final sinus complexes after dose 25 mg/kg, po; format: functional, Canis lupus familiaris, Cardiac ventricle
[31] = test system: Canis familiaris; experiment: Activity against harris coronary ligation induced ventricular arrhythmia was measured as percent of final sinus complexes after dose 6.25 mg/kg, po; format: functional, Canis lupus familiaris, Cardiac ventricle
[32] = test system: Canis familiaris; experiment: Activity against harris coronary ligation induced ventricular arrhythmia was measured as percent of initial sinus complexes after dose 6.25 mg/kg, po; format: functional, Canis lupus familiaris, Cardiac ventricle
[33] = test system: Canis familiaris; experiment: Activity against harris coronary ligation induced ventricular arrhythmia was measured as percent of initial sinus complexes after dose 2.5 mg/kg, iv; format: functional, Canis lupus familiaris, Cardiac ventricle
[34] = test system: Canis familiaris; experiment: Activity against harris coronary ligation induced ventricular arrhythmia was measured as percent of final sinus complexes after dose 12.5 mg/kg, po; format: functional, Canis lupus familiaris, Cardiac ventricle
[35] = test system: Canis familiaris; experiment: Activity against ouabain-induced ventricular arrhythmia was measured as percent of sinus rhythm recovery at dose of 2.5 mg/kg iv; format: functional, Canis lupus familiaris, Cardiac ventricle
[36] = test system: Canis familiaris; experiment: Activity against harris coronary ligation induced ventricular arrhythmia was measured as percent of initial sinus complexes after dose mg/kg, iv=6; Inactive; format: functional, organism-based; settings: Canis lupus familiaris; Cardiac ventricle
[37] = test system: Canis familiaris; experiment: Activity against harris coronary ligation induced ventricular arrhythmia was measured as percent of initial sinus complexes after dose 1 mg/kg iv; format: functional, Canis lupus familiaris, Cardiac ventricle
[38] = test system: Canis familiaris; experiment: Activity against harris coronary ligation induced ventricular arrhythmia was measured as percent of final sinus complexes after dose 1 mg/kg iv; format: functional, Canis lupus familiaris, Cardiac ventricle
[39] = test system: Canis familiaris; experiment: Activity against ouabain-induced ventricular arrhythmia was measured as percent of sinus rhythm recovery at dose of 8 mg/kg iv; format: functional, Canis lupus familiaris, Cardiac ventricle

Compound: CNC(=O)Nc1c(OCCN2CCCCC2)cc2occc2c1OC
- LD50 [1]: 100 mg/kg
- SRR [2]: 100%

Compound: COc1c(NC(C)=O)c(OCCNC(C)C)c(OC)c2occc12
- SRR [3]: 33%
- LD50 [1]: 88 mg/kg
- Duration [4]: <30 min

Compound: CNC(=O)Nc1c(OCCN2CCN(C)CC2)c(OC)c2occc2c1OC
- ISC [5]: 1%
- FSC [6]: 98%
- SRR [7]: 100%
- FSC [8]: 50%
- ISC [9]: 18%
- Duration [10]: 30 min and <30 min
- LD50 [1]: 145 mg/kg
- Duration [4]: 120 min

Compound: COc1c(NC(C)=O)c(OCCN2CCN(C)CC2)c(OC)c2occc12
- LD50 [11]: 200 mg/kg
- SRR [12]: 66%
- Duration [4]: <30 min

Compound: CC(C)N(CCC(C(N)=O)(c1ccccc1)c1ccccn1)C(C)C (stereo not given) [DISOPYRAMIDE]
- FSC [13]: 100%
- FSC [14]: 100%
- SRR [7]: 100%
- Duration [10]: 60 min and 180 min
- LD50 [1]: 60 mg/kg
- ISC [15]: 19%
- ISC [16]: 1%
- Duration [4]: 25 min

Compound: CNC(=O)Nc1c(OCCN(C)C)c(OC)c2occc2c1OC
- Duration [17]: 10 min
- SRR [18]: 100%
- FSC [19]: 20%
- ISC [20]: 5%
- LD50 [1]: 100 mg/kg
- Duration [4]: 30 min

Compound: C=C[C@H]1CN2CC[C@H]1C[C@@H]2[C@@H](O)c1ccnc2ccc(OC)cc12 [QUINIDINE]
- ISC [21]: 5%
- SRR [12]: 50%
- FSC [22]: 25% and 56%
- ISC [23]: 9%
- ISC [24]: 9%
- FSC [25]: 67%
- Duration [10]: >90 min and 120 min and 240 min
- LD50 [1]: 89 mg/kg
- Duration [4]: 60 min

Compound: CNC(=O)Nc1c(OCCN2CCCCC2)c(OC)c2occc2c1OC [MUROCAINIDE]
- ISC [26]: 13%
- ISC [5]: 14%
- SRR [27]: 100%
- ISC [28]: 5%
- FSC [29]: 45%
- FSC [30]: 98%
- FSC [31]: 14%
- ISC [32]: 1%
- FSC [8]: 85%
- ISC [33]: 3%
- LD50 [1]: 50 mg/kg
- FSC [34]: 90%
- Duration [4]: >60 min

Compound: COc1c(NC(C)=O)c(OCCN2CCCCC2)c(OC)c2occc12
- SRR [35]: 100%
- ISC [36]: inactive
- LD50 [1]: 52 mg/kg
- Duration [4]: >50 min

Compound: COc1c(NC(=O)OC(C)C)c(OCCN2CCCCC2)c(OC)c2occc12
- SRR [18]: 100%
- ISC [37]: 30%
- Duration [10]: 10 min
- LD50 [1]: 10 mg/kg
- FSC [38]: 50%
- Duration [4]: >100 min

Compound: CNC(=O)Nc1c(OC)c2c(c(OC)c1OCCN1CCCCC1)OCC2
- SRR [39]: 100%
- LD50 [1]: 180 mg/kg
- Duration [4]: <30 min
